Experiments:
ERK and AKT = assay: Western blot of ERK and AKT activation in HUVEC and hDMVECs; assay type: cell-based, human; settings: 40 μM
Experimental: (§1) Cells were allowed to reach-80% confluency in 12-well plates. […] At various time points, plates were taken out of the incubator and kept on ice. Cell monolayers were first washed once with ice-cold PBS before lysis with 250 μI of Pierce RIPA buffer (ThermoFisher Scientific, Rockford, IL) or use 50 mM Tris-HCl (pH 7.6), 150 mM NaCl, 10% Glycerol, 1% NP-40 containing protease/Phosphatase inhibitor cocktail (100×) (Cell signaling, #5872). Lysates were collected and mixed with 4× Bolt LDS Sample Buffer (Novex, Carlsbad, CA) in the presence of Halt protease inhibitors and phosphatase inhibitor cocktail (ThermoFisher scientific, #NP0007). The samples were subjected to SDS-PAGE (Bolt 4-12% Bis-Tris Plus, Invitrogen) using Bolt MES SDS running buffer or NuPAGE 3-8% Tris-Acetate gel using Tris-Acetate SDS running buffer (Novex). HUVECs (passage 6-8) were plated in EBM-2 basal medium (Lonza) with 0.2% FBS. Following overnight culture, cells were serum-starved in EBM-2 medium for 4 hrs prior to treatment with 50 ng/ml of VEGF165 or vehicle controls for various lengths. Equal amounts of protein lysates were analyzed by SDS-PAGE and blotted with the indicated antibodies. Proteins were transferred using Tris-Glycine buffer with 20% Methanol (Proteonomics grade) (Apex BioResearch Products). […]

O-glycan of BCEC lysates = assay: O-glycan analysis in BCEC lysates (MALDI-Tof); assay type: cell-based, bovine; settings: 40 μM ManN
Experimental: For O-glycan analysis, homogenized cell samples were treated with 50 mM NaOH in presence of 1M NaBH4 for 16 hrs at 45° C. The reaction mixture was neutralized using ice-cold 30% acetic acid slowly. The neutralized reaction mixture was then passed over Dowex 50-X cation exchange resin to remove sodium ion and lyophilized. Excess boric acid generated during neutralization was then removed by co-evaporation using acidified methanol and methanol respectively. Finally the O-glycan was purified by passing over C18 cartridge. Dried and purified O-glycan was then methylated and used for O-glycan analysis after permethylation. Permethylated samples were then dissolved in absolute methanol and mixed with SDHB (Super-DHB) MALDI matrix in 1:1 v/v ratio and spotted on maldi plate. Mass spectral data was acquired using Bruker AutoFlex mass spectrometer at positive, reflectron mode. The mass spectral data were analyzed and annotated using GlycoWork Bench software and masses matched with the proposed structures were annotated. The mono-isotopic ion intensities are taken for calculation.

skin wound = assay: Skin wound healing model (splinted wound); assay type: in vivo, mouse; settings: topical 20 μg daily; mice; PBS group 81.5%
From the text: The model has been previously described. Briefly, C57BL/6 female mice (8-10 weeks old) were obtained from Jackson labs (Sacramento, CA). A fresh, full-thickness punch wound (4 mm diameter) using a punch (Acu Punch, Acuderm inc. Ft. Lauderdale, FL) splinted with a sterile neoprene ring (6-mm outer diameter and 4-mm inner diameter), fastened with 5-6 sutures (4-0 nylon) under the influence of Isoflurane was created on the back of the animal in a Class II Biological Safety Cabinet. For all surgical procedures, sterile technique was followed. Buprenorphine was given subcutaneously prior to awakening from anesthesia for anticipated pain. Mice were monitored until fully awake and were housed individually to minimize damage/biting/fighting to the surgical site. […] Treatment agents were prepared in PBS, sterile-filtered and 25 μl solution was applied daily directly to a wound bed for the first 4-5 days under the influence of Isoflurane, followed by daily observation. Wound closure was monitored by regular imaging and the wound area was quantified using ImageJ (National Institutes of Health, Bethesda, MD, USA). […] Epithelial gap was measured histomorphometrically using AxioVision LE Rel.4.4 software. […] Small vessels stained positive for CD31 were counted microscopically on 10 fields (20×) taken around the wound.

human dermal fibroblasts = assay: Human dermal fibroblast proliferation assay; assay type: cell-based; settings: alone or in combination with growth factors
Experimental: Proliferation assays with fibroblasts were done in low-glucose DMEM containing 1% FBS, with or without 10 ng/ml bFGF, or 100 ng/ml human EGF and the assay was ended at day 3. ARPE-19 cells were gently lifted with 0.025% trypsin and plated in RtEGM media (Clonetics) containing 2% FBS, L-glutamine, human bFGF and GA-1000. Once cells were attached to plates, serum-free RtEGM media was used to maintain the cultures. For proliferation assays, 1500 human RPE cells were plated into 96-well plates in low-glucose DMEM containing 1% FBS. A673, U87MG, Calu6 and AML12 cells were grown until confluent and were then harvested and re-suspended in appropriate assay media. For proliferation assays, cells were plated at the density of 1000-2000 cells/well in low-glucose DMEM containing 5% FBS or otherwise stated. Bovine pituitary cells (pituitary folliculostellate cells) were isolated as previously described. For proliferation assays with human epidermal keratinocytes, human DMVECs and human dermal fibroblast cells, 1000 cells/well were plated in low-glucose DMEM containing 1% FBS with or without various growth factors. The assay was ended at day 3 for bovine pituitary cells and at day 4 for all the other cell types. […] Four days later, tumor cell growth was measured by the MTS assay (Promega, Madison, WI), a colorimetric assay that measures metabolic activity of viable cells. […]

bFGFR 1 or β1 integrin = assay: Western blot of protein molecular mass in non-endothelial cells; assay type: cell-based; settings: 400 μM and 2 mM
Experimental: as §1

O=C1N[C@@H]2[C@@H](O)[C@@H](O)[C@H](O)[C@@H](CO)N2C1=O [Kif, Kifunensine, reference compound]
activation of ERK and AKT in human ECs by glycosylation inhibitors (ERK and AKT): significantly activate ERK and AKT

N[C@H](C=O)[C@@H](O)[C@H](O)[C@H](O)CO [ManN, 2-Amino-2-deoxy-D-mannose]
O-glycosylation (O-glycan of BCEC lysates): overall decrease in O-glycosylation
average closure of the wound on day 4 (skin wound): 75.6%
proliferation of human dermal fibroblasts (human dermal fibroblasts): no increases in proliferation
molecular mass change of bFGFR 1 or β1 integrin in non-ECs (bFGFR 1 or β1 integrin): could induce molecular mass change
